For 14 compounds, IC50 results are on record in US5294713A, “2-piperazinone compounds and their use” (Takeda Chemical Industries, Ltd., priority 1991, dated 1994).

Experiment [1] concerns guinea pig platelet aggregation. In words: Inhibitory action on guinea pig platelet aggregation (ADP-stimulated PRP). Format: cell-based. The following applies: Cavia porcellus, ADP final concentration 1 μM, in vitro, read-out: Inhibitory effect on platelet aggregation in vitro (IC50) guinea pig. The procedure:
TEST EXAMPLE 1 [I] Inhibitory action on guinea pig platelet aggregation
Blood was collected in 3.15% sodium citrate (1 ml for 9 ml of blood) by cardiac puncture from male guinea pig. The blood was centrifuged at 1000 g for 3 to 5 seconds at room temperature to obtain platelet rich plasma (PRP). The PRP was further centrifuged at 1000 g for 10 minutes to obtain platelet poor plasma (PPP). The number of platelets was measured using an automatic blood cell counter (Sysmex E2500, Toaiyou-densi). The platelet density of PRP was adjusted to 400,000/μl with PPP. Platelet aggregation was measured using an 8-channel aggregometer (NBS HEMA TRACER VI Niko Bioscience Inc.). The PRP (250 μl ) was preincubated at 37° C. for 2 minutes. and then incubated for 2 minutes. with 25 μl of physiological saline or various concentrations of test drugs followed by stimulation with ADP (final concentration: 1 μM). By comparing the maximum aggregation rates of the control and those of test drugs, the inhibitory rates were determined. The results are shown in [Table 1]-[Table 3].

The subject of experiment [2] is human platelet aggregation. The experiment in a line: Inhibitory action on human platelet aggregation (ADP-stimulated PRP). The following applies: ADP final concentration 3 μM, in vitro, read-out: Inhibitory effect on platelet aggregation in vitro (IC50) man. Format: cell-based. The method, then: [II] Inhibitory action on human platelet aggregation
Human blood was collected in 3.8% sodium citrate (1 ml for 9 ml of blood) by venipuncture from healthy male volunteers. The blood was centrifuged at 1000 g for 3 to 5 seconds at room temperature to obtain platelet rich plasma (PRP). The PRP was further centrifuged at 1000 g for 10 minutes to obtain platelet poor plasma (PPP). The number of platelets was measured using an automatic blood cell counter (Sysmex E2500, Toaiyou-densi). The platelet density of PRP was adjusted to 300,000/μl with PPP. Platelet aggregation was measured using an 8-channel aggregometer (NBS HEMA TRACER VI Niko Bioscience Inc.). The PRP (250 μl) was preincubated at 37° C. for 2 minutes. and then incubated for 2 minutes. with 25 μl of physiological saline or various concentrations of test drugs followed by stimulation with ADP (final concentration: 3 μM). By comparing the maximum aggregation rates of the control and those of test drugs, the inhibitory rates were determined. The results are shown in [Table 1]-[Table 3].

Experiment [3] concerns the target T1, GPIIb/IIIa (Homo sapiens, UniProt P05106+P08514).
T1 construct: Purification of GPIIb/IIIa from HEL Cells; endogenous in cells; host or cells: HEL cells (HEL 92.1.7; ATCC TIB180), human erythroleukemia; GPIIb/IIIa solubilized in Triton X-100, purified and adsorbed on microtiter plates
The experiment in a line: Inhibition of fibrinogen binding to GPIIb/IIIa. Conditions: purified GPIIb/IIIa from HEL cells, biotinylated human fibrinogen 1 nM. The procedure:
(1) Cultibation of Cells Derived from Human Erythroleukemia (Hereinafter Referred to as HEL Cells)
HEL cells (HEL 92. 1. 7; ATCC No. TIB180) were purchased from ATCC (Rockville, Md., U.S.A.). The cells were grown in RPMI medium containing 40 mM N-2-hydroxyethylpiperazin-N'-2-ethanesulfonic acid (hereinafter referred to as HEPES) (pH 7.0), 100 μg/ml of Kanamycin and 10% FCS (GIBCO Laboratories, Grand Island, N.Y., U.S.A.). Cultivation was conducted at 37° C in the presence of 5% CO2.
(2) Purification of GPIIb/IIIa from HEL Cells
Purification of GPIIb/IIIa was performed using the following modification of the method of L. A. Fitzgerald et al. [J. Biol. Chem., 262, 3936 (1987)]. The purification was conducted at room temperature unless specifically mentioned. From 7 L of the culture broth on 7th day of the cultibation (floating cells), the cells were collected by centrifugation (1,000×g, 10 minutes, 4° C.), which were washed with 20 mM Tris-HCl(pH 7.5) containing 1 mM EDTA and 150 mM NaCl. The cells were suspended in 80 ml of a solubilized buffer [20 mM Tris-HCl, 150 mM NaCl, 1% Triton X-100, 1 mM MgCl2, 1 mM CaCl2, 0.1 mM (p-amidinophenyl)methanesulfonyl fluoride (hereinafter referred to as APMSF), 10 nM leupeptin, 0.02% NaN3, pH 7.4)].
The cell suspension was gently mixed for 30 minutes at 4° C. to solubilize GPIIb/IIIa. The suspension was subjected to centrigugation (100,000×g, one hour) at 4° C. to remove cell debris to obtain a cell-extraction solution (60 ml). […] The fraction which passed through the column was charged on the ConA-Sepharose column (Pharmacia LKB, .phi. 1.0×15 cm, 20 ml/hr) to allow GPIIb/IIIa to be adsorbed thereon, then GPIIb/IIIa was eluted with column buffer solution containing 0.5 M methyl α-D-mannopyranoside. The eluate thus obtained was allowed to pass through the DEAE-Toyopearl 650 M column (Tosoh, .phi. 1.6×10.5 cm, 20 ml/hr) equilibrated with the same column buffer to remove contaminating proteins.
(3) Biotinylation of Human Fibrinogen
Biotinylation of human fibrinogen was performed by the following procedure [I. F. Charo et al., J. Biol. Chem., 266, 1415 (1991)]. Human fibrinogen (Kabi Vitrum AB, Stockholm, Sweden) was dissolved in PBS so as to make its concentration 5 mg/ml. The solution was dialyzed overnight at 4° C. against 1 L of 0.1 M NaHCO3 -0.1 M NaCl (pH 8.2). Insolubles were then removed by centrifugation (100,000×g, 30 minutes), and the solution was diluted with the same buffer to the protein concentration of 1 mg/ml. To thus-diluted solution was added powdery sulfo-N-hydroxysuccinimidobiotin (Pierce Chemical Co., Rockford, Ill., U.S.A.) so as to make its final concentration 0.2 mg/ml and gently mixed to perform biotinylate fibrinogen. The resultant was subjected to dialysis against 50 mM Tris-HCl (pH 7.4) - 100 mM NaCl-0.05% NaN3. The dialysate was distributed and stored at 4° C.
(4) Inhibition Assay for Fibrinogen Binding to GPIIb/IIIa
This experiment was performed using a modification of the method described in the above-mentioned I. F. Charo et al. report. The purified GPIIb/IIIa was diluted with the buffer A (20 mM Tris-HCl, 150 mM NaCl, 1 mM CaCl2, 0.02% NaN3, pH 7.4) to a concentration of 1 μg/ml. The diluted solution was added to 96-well microtiter plates (MaxiSorp; Nunc, Denmark) at 100 μl per well, which were left standing at 4° C. overnight to allow GPIIb/IIIa to be adsorbed on the microplates. The plate was aspirated, and then 150 μl of the buffer B (35 mg/ml BSA, 50 mM Tris-HCl, 100 mM NaCl, 2 mM CaCl2, 0.02%, NaN3, pH 7.4) was added to the plate, and blocking was performed at 30° C. for 2 hours. The plate was washed twice with 250 μl each of the buffer C (1 mg/ml BSA, 50mM Tris-HCl, 100 mM NaCl, 2 mM CaCl2, pH 7.4).

T1 sequence (P08514 32-887 limits assumed): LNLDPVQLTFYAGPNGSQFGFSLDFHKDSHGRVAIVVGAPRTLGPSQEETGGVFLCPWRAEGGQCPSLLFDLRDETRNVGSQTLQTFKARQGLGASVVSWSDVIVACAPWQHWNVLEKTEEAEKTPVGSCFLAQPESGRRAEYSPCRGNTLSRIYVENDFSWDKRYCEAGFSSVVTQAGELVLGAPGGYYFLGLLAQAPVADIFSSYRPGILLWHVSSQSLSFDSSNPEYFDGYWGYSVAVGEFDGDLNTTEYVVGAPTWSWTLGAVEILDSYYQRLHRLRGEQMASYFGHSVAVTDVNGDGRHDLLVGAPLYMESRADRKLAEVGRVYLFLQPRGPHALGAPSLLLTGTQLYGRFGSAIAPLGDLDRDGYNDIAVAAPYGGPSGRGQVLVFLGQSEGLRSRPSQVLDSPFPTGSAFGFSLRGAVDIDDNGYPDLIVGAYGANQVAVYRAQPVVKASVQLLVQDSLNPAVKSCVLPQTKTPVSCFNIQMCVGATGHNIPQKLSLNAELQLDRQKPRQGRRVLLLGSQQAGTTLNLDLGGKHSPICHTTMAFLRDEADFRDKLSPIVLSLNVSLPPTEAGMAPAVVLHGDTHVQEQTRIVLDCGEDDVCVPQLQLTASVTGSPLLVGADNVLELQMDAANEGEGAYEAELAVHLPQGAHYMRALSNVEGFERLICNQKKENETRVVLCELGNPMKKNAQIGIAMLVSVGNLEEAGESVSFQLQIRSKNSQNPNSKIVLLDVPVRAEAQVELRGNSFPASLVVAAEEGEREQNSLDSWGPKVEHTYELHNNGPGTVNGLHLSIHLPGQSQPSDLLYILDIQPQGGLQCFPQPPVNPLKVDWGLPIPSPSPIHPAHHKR
T1 sequence (P08514 891-1039 limits assumed): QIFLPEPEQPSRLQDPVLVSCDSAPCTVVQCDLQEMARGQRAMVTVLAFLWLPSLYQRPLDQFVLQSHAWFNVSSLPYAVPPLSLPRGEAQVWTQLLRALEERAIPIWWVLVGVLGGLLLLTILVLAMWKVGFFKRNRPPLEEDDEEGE
T1 sequence (P05106 27-788): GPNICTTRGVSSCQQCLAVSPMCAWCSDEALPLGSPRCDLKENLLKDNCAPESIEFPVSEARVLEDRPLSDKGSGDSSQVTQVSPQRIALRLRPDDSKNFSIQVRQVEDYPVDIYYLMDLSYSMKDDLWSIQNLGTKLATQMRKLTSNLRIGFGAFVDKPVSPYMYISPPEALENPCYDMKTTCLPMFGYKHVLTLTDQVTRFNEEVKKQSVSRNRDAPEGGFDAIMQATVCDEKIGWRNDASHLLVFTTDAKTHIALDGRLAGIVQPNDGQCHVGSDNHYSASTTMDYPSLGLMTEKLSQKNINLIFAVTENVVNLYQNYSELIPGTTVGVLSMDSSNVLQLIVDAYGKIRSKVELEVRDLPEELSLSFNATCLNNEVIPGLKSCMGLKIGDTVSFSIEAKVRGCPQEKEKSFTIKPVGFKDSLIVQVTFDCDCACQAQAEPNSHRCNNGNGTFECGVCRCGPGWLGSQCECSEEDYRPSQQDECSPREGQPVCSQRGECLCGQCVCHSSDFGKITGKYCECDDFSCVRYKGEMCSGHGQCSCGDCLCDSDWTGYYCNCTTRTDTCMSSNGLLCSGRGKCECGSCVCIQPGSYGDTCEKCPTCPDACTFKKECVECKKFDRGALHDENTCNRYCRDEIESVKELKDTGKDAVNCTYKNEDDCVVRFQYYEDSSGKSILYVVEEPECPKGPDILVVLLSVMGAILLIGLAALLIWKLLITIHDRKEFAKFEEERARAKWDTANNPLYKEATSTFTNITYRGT

Turning to `N=C(N)c1ccc(C(=O)NCC(=O)N2CCN([C@@H](Cc3ccccc3)C(=O)O)C(=O)[C@@H]2CC(=O)O)cc1` [compound 54], the values for the IC50 in experiment [1], in experiment [2] and in experiment [3] were 4100 nM, 660 nM and 6.1 nM, respectively.

As to `NCCc1ccc(C(=O)NCC(=O)N2CCN(CC(=O)O)C(=O)[C@@H]2Cc2ccccc2)cc1` [compound 89], the IC50 (commonly the concentration at which inhibition is half-maximal) is 200 nM in experiment [1], 380 nM in experiment [2] and 3.6 nM in experiment [3].

In the case of `COC(=O)C[C@H]1C(=O)N(CC(=O)O)CCN1C(=O)CNC(=O)c1ccc(C(=N)N)cc1` [compound 59], the IC50 in experiment [1] was 56 nM; in experiment [2], 48 nM; in experiment [3], 0.49 nM.

For the compound `N=C(N)N1CCC(C(=O)NCC(=O)N2CCN(CC(=O)O)C(=O)[C@@H]2CC(=O)O)CC1` [compound 38], the figures for the IC50 in experiment [1], in experiment [2] and in experiment [3] were 9600 nM, 1600 nM and 21 nM, respectively.

Consider `N=C(N)NCc1ccc(C(=O)NCC(=O)N2CCN(CC(=O)O)C(=O)[C@@H]2CC(=O)O)cc1` [compound 8], for which the IC50 in experiment [1] came out at 1300 nM; in experiment [2] it was 660 nM; in experiment [3], 18 nM.

As to `NCCc1ccc(C(=O)NCC(=O)N2CCN(CC(=O)O)C(=O)[C@@H]2CC(=O)O)cc1` [compound 46], the concentration for half-maximal inhibition (IC50) was determined as 130 nM in experiment [1], 230 nM in experiment [2] and 2.5 nM in experiment [3].

As to `NCCc1ccc(C(=O)NCC(=O)N2CCN(CC(=O)O)C(=O)C2)cc1` [compound 87], the IC50 in experiment [1] stood at 150 nM; in experiment [2] it was 180 nM; in experiment [3], 1.6 nM.

Consider `N=C(N)NC[C@H]1CC[C@H](C(=O)NCC(=O)N2CCN(CC(=O)O)C(=O)[C@@H]2CCC(=O)O)CC1` [compound 32], for which the IC50 in experiment [1] was determined as 3100 nM; in experiment [2] it was 960 nM; in experiment [3] it was 15 nM.

As for `CN(C)CCc1ccc(C(=O)NCC(=O)N2CCN(CC(=O)O)C(=O)[C@@H]2CCC(=O)O)cc1` [compound 77], the IC50 in experiment [1] was 2500 nM; in experiment [2] it was 4700 nM; in experiment [3], 45 nM.

As for `COC(=O)CC[C@H]1C(=O)N(CC(=O)O)CCN1C(=O)CNC(=O)c1ccc(CCN)cc1` [compound 80], the IC50 turned out to be 120 nM in experiment [1], 110 nM in experiment [2] and 0.89 nM in experiment [3].

Regarding `N=C(N)c1ccc(C(=O)NCC(=O)N2CCN(CC(=O)O)C(=O)[C@@H]2CC(=O)O)cc1` [compound 39], the IC50 in experiment [1] amounted to 165 nM; in experiment [2], 110 nM; in experiment [3], 1 nM.

As for `C[C@@H](C(=O)O)N1CCN(C(=O)CNC(=O)c2ccc(C(=N)N)cc2)[C@@H](CC(=O)O)C1=O` [compound 69], the IC50 in experiment [1] was 1500 nM; in experiment [2], 1600 nM; in experiment [3] it was 19 nM.

Consider `CN(C)CCc1ccc(C(=O)NCC(=O)N2CCN(CC(=O)O)C(=O)[C@@H]2CCC(N)=O)cc1` [compound 85], for which the IC50 in experiment [1] came to 4100 nM; in experiment [2], 5600 nM; in experiment [3], 32 nM.

As for `N=C(N)c1ccc(C(=O)NCC(=O)N2CCN(CC(=O)O)C(=O)[C@@H]2CC(N)=O)cc1` [compound 71], the IC50 in experiment [1] stood at 110 nM; in experiment [2], 74 nM; in experiment [3] it was 0.92 nM.
